Columns and labels:
Assay type in all cases: functional, organism-based
Gallus gallus [1] = organism: Gallus gallus; experiment: Inhibitory activity against second generation merozoids of Eimeria tenella in chick hepatocyte assay
Gallus gallus [2] = organism: Gallus gallus; experiment: Inhibitory activity against second generation merozoids of Eimeria tenella in chick hepatocyte assay; value given as 0.2-1.0
Gallus gallus [3] = organism: Gallus gallus; experiment: Inhibitory activity against second generation merozoids of Eimeria tenella in chick hepatocyte assay in the presence of iproniazid; value given as 0.004-0.0008
Gallus gallus [4] = organism: Gallus gallus; experiment: Inhibitory activity against second generation merozoids of Eimeria tenella in chick hepatocyte assay in the presence of Tranylcypromine; value given as 0.004-0.0008
Gallus gallus [5] = organism: Gallus gallus; experiment: Inhibitory activity against second generation merozoids of Eimeria tenella in chick hepatocyte assay in the absence of inhibitor; value given as 0.004-0.0008
Gallus gallus [6] = organism: Gallus gallus; experiment: Inhibitory activity against second generation merozoids of Eimeria tenella in chick hepatocyte assay in the presence of Tranylcypromine; Value given as 1-5
Gallus gallus [7] = organism: Gallus gallus; experiment: Inhibitory activity against second generation merozoids of Eimeria tenella in chick hepatocyte assay in the absence of inhibitor; value given as 0.2-1.0
Gallus gallus [8] = organism: Gallus gallus; experiment: Inhibitory activity against second generation merozoids of Eimeria tenella in chick hepatocyte assay in the presence of Ketoconazole at 5 ug/ml; value given as 0.2-1.0
Gallus gallus [9] = organism: Gallus gallus; experiment: Inhibitory activity against second generation merozoids of Eimeria tenella in chick hepatocyte assay in the presence of alpha-naphthoflavone at 5 ug/ml; value given as 0.2-1.0
Gallus gallus [10] = organism: Gallus gallus; experiment: Inhibitory activity against second generation merozoids of Eimeria tenella in chick hepatocyte assay in the presence of SKF-525A at 5 ug/ml; value given as 0.2-1.0
Gallus gallus [11] = organism: Gallus gallus; experiment: Inhibitory activity against second generation merozoids of Eimeria tenella in chick hepatocyte assay in the presence of iproniazid; Value given as 1-5
Gallus gallus [12] = organism: Gallus gallus; experiment: Inhibitory activity against second generation merozoids of Eimeria tenella in chick hepatocyte assay in the presence of iproniazid; Value given as 0.08-0.016
Gallus gallus [13] = organism: Gallus gallus; experiment: Inhibitory activity against second generation merozoids of Eimeria tenella in chick hepatocyte assay in the absence of inhibitor; Value given as 0.08-0.016
Gallus gallus [14] = organism: Gallus gallus; experiment: Inhibitory activity against second generation merozoids of Eimeria tenella in chick hepatocyte assay in the presence of Tranylcypromine; Value given as 0.08-0.016

Row | Compound | IC50 (Gallus gallus [1]) [p.p.m.] | IC50 (Gallus gallus [2]) [p.p.m.] | other results
1 | COc1cc(NCCCC/C=N/OCc2ccc([N+](=O)[O-])cc2)c2ncccc2c1 | > 1 | – | –
2 | COc1cc(NCCCCC(=O)O)c2ncccc2c1 | > 1 | – | –
3 | CO/N=C/CCCCNc1cc(OC)cc2cccnc12 | – | 0.2 | –
4 | COc1cc(NCCCC/C=N/O)c2ncccc2c1 | > 1 | – | –
5 | COc1cc(NCCCC2(C)OCCO2)c2ncccc2c1 | > 1 | – | –
6 | COc1cc(NCCCC2(c3ccc(F)cc3)OCCO2)c2ncccc2c1 | – | 0.2 | –
7 | COc1cc(NCCCC/C=N/Oc2ccccc2)c2ncccc2c1 | – | 0.2 | –
8 | COc1cc(NCCCCC2OCCO2)c2ncccc2c1 | – | 0.2 | –
9 | COc1cc(NCCCC2OCCO2)c2ncccc2c1 | > 1 | – | –
10 | COc1cc(NCCCC/C=N/OCC(=O)O)c2ncccc2c1 | > 1 | – | –
11 | COc1cc(NCCCC/C=N/OC(C)(C)C)c2ncccc2c1 | – | 0.2 | –
12 | COc1cc(NCCCCCO)c2ncccc2c1 | > 1 | – | –
13 | C=CCO/N=C/CCCCNc1cc(OC)cc2cccnc12 | – | 0.2 | –
14 | COc1cc(NCCCC/C=N/OC(=O)c2ccccc2)c2ncccc2c1 | – | 0.2 | –
15 | CCO/N=C/CCCCNc1cc(OC)cc2cccnc12 | – | 0.2 | –
16 | CCCCCCCCCCOc1cc2c(O)c(C(=O)OCC)cnc2cc1OCC [DECOQUINATE] | – | – | IC50 (Gallus gallus [3]): 0.0008 p.p.m.; IC50 (Gallus gallus [4]): 0.0008 p.p.m.; IC50 (Gallus gallus [5]): 0.0008 p.p.m.
17 | N#CC(c1ccc(Cl)cc1)c1c(Cl)cc(-n2ncc(=O)[nH]c2=O)cc1Cl (stereo not given) [DICLAZURIL] | – | – | IC50 (Gallus gallus [3]): 0.0008 p.p.m.; IC50 (Gallus gallus [4]): 0.0008 p.p.m.; IC50 (Gallus gallus [5]): 0.0008 p.p.m.
18 | COc1cc(NCCCCCNC(C)C)c2ncccc2c1 [PENTAQUINE] | – | – | IC50 (Gallus gallus [6]): 1 p.p.m.; IC50 (Gallus gallus [7]): 0.2 p.p.m.; IC50 (Gallus gallus [8]): 0.2 p.p.m.; IC50 (Gallus gallus [9]): 0.2 p.p.m.; IC50 (Gallus gallus [10]): 0.2 p.p.m.; IC50 (Gallus gallus [11]): 1 p.p.m.
19 | CC[C@@H](C(=O)[C@@H](C)[C@@H](O)[C@H](C)[C@@H]1O[C@@H]([C@@H](CC)C(=O)O)CC[C@@H]1C)[C@H]1O[C@]2(C=C[C@@H](O)[C@]3(CC[C@@](C)([C@H]4CC[C@](O)(CC)[C@H](C)O4)O3)O2)[C@H](C)C[C@@H]1C [SALINOMYCIN] | – | – | IC50 (Gallus gallus [12]): 0.016 p.p.m.; IC50 (Gallus gallus [13]): 0.016 p.p.m.; IC50 (Gallus gallus [14]): 0.016 p.p.m.

— ChEMBL document CHEMBL1130837, “8-Aminoquinolines as anticoccidials--II” (Bioorg Med Chem Lett, 1998)
